The subject of experiment [1] is aTNF-Fab. Briefly: Acid dissociation pH by pH linear gradient chromatography on aTNF-Fab-immobilized column. The format is binding. The conditions noted are these: for Dissociation pH (pH at elution peak top): pH linear gradient from pH 5.5 to pH 2.5; for elution position in pH gradient compared with peptide without mutation: Table 3 and FIG. 2. How it is done:
An affinity separation matrix on which aTNF-Fab obtained in the above Example 2 was immobilized was prepared by using a commercially available coupling column for immobilizing a ligand. The column has an amino group as a functional group for coupling.
As a water-insoluble carrier, 1 mL of a commercially available prepacked column (“Hitrap NHS activated HP” manufactured by GE Healthcare Bioscience) was used. The column contains a crosslinked agarose as a base material and an amino group is introduced as an active functional group for immobilizing a protein ligand, and a ligand was immobilized in accordance with the product manual. Specifically, 2 mL of ice-cooled 1 mM HCl was flown at a rate of 1 mL/min repeatedly three times to remove isopropanol in the column.
Then, 1 mL of a 1 mg/mL aTNF-Fab solution in a coupling buffer (0.2 MNaHCO3, 0.5 MNaCl, pH 8.3) was immediately flown at the same rate. The top and bottom of the column were stoppled, and the column was stood still at 25° C. for 30 minutes to immobilize the obtained ligand on the column.
Then, the column was opened, and 3 mL of the coupling buffer was flown at the same rate to recover the unreacted aTNF-Fab. Next, 2 mL of a blocking buffer (0.5 M ethanolamine, 0.5 M NaCl, pH 8.3) was flown repeatedly three times and 2 mL of a washing buffer (0.1 M acetic acid, 0.5 M NaCl, pH 4.0) was flown three times. Each of the above-described procedure to flow the blocking buffer and washing buffer were performed three times one after the other. Finally, 2 mL of a standard buffer (20 mM NaH2PO4—Na2HPO4, 150 mM NaCl, pH 7.4) was flown to complete the preparation of an affinity separation matrix.
By affinity purification chromatography using aTNF-Fab-immobilized column prepared in Example 3(1), an acid dissociation pH at which each modified SpG-β1# prepared in Example 1 (2) was eluted and which corresponded to the peak top of an elution curve of the modified SpG-β1# was measured. Specifically, AKTAprime plus system was used as a chromatography system. The column was equilibrated using ion exchange buffer A (50 mM citric acid-citrate Na, pH 5.5). Into the column, 0.1 mL of a protein solution containing each modified SpG-β1# in the concentration of about 0.1 mg/mL was added, and the protein was eluted with the pH linear gradient from pH 5.5 to pH 2.5. More specifically, the ion exchange buffer A and ion exchange buffer B (50 mM AcOH—AcONa, 1 M NaCl, pH 2.5) were used. […] The pH value which was specified in the experiment as the value corresponding to each elution peak top is shown in Table 3 in addition to the result of Comparative example 3.
An acid dissociation pH of GB1#-Cont.1d prepared in Comparative example 1 was measured using aTNF-Fab-immobilized carrier prepared in Example 3(1) similarly to the procedure of Example 3(2).

Experiment [2] relates to aTNF-Fab. Briefly: Affinity of modified SpG-β1# for aTNF-Fab by surface plasmon resonance (Biacore 3000). The following applies: aTNF-Fab immobilized on CM5 sensor tip, 25° C., pH 7.4, 1:1 binding model. How it is done: A humanized monoclonal IgG product as a raw material was fragmented into a Fab fragment and a Fc fragment using papain, and only the Fab fragment was separated and purified. Specifically, anti-human TNFα monoclonal IgG (generic name: “Infliximab”, product name: “Remicade” manufactured by Mitsubishi Tanabe Pharma Corporation) was dissolved in a buffer for papain treatment (0.1 M AcOH—AcONa, 2 mM EDTA, 1 mM cysteine, pH 5.5), and agarose on which papain was immobilized (“Papain Agarose from papaya latex” manufactured by SIGMA) was added thereto. The mixture was incubated with stirring by a rotator at 37° C. for about 8 hours. The IgG-Fab was purified by recovering as a flow-through fraction in an affinity chromatography using MabSelect SuRe column (GE Healthcare Bioscience) from the reaction mixture which contained both of a Fab fragment and a Fc fragment and which was separated from the agarose on which papain was immobilized. The obtained IgG-Fab solution was subjected to purification by gel filtration chromatography using Superdex 75 10/300 GL column to obtain the solution of IgG-Fab (aTNF-Fab). In the chromatography, the standard buffer was used for equilibration and separation. Similarly to the above-described Example 1, AKTAprime plus system was used in the chromatography for peptide purification.
The affinity of each various modified SpG-β1# obtained in the above Example 1(2) for aTNF-Fab was evaluated using a biosensor Biacore 3000 (GE Healthcare Bioscience) utilizing surface plasmon resonance. In the present Example, the aTNF-Fab obtained in the above Example 2(1) was immobilized on a sensor tip, and each of the peptide was flown on the tip to detect the interaction between the two. The aTNF-Fab was immobilized on a sensor tip CM5 by amine coupling method using N-hydroxysuccinimide (NHS) and N-ethyl-N′-(3-dimethylaminopropyl)carbodiimide hydrochloride (EDC), and ethanolamine was used for blocking. All of the sensor tip and reagents for immobilization were manufactured by GE Healthcare Bioscience. The aTNF-Fab solution was diluted about 10 times using a buffer for immobilization (10 mM AcOH—AcONa, pH 4.5), and the aTNF-Fab was immobilized on the sensor tip in accordance with the protocol attached to the Biacore 3000. In addition, a reference cell as negative control was also prepared by activating another flow cell on the tip with EDC/NHS, immobilizing nothing and blocking with ethanolamine. Peptide solutions of each various modified SpG-β1# having concentrations of 0.01, 0.1, 1 or 10 μM were prepared using a running buffer (20 mM NaH2PO4—Na2HPO4, 150 mM NaCl, 0.005% P-20, pH 7.4). The peptide solution was added to the sensor tip in a flow rate of 40 μL/min for 1 minute. Bonding response curves at the time of addition (association phase, for 1 minute) and after the addition (dissociation phase, for 1 minute) were sequentially obtained at a measurement temperature of 25° C. After each measurement, the cells were washed using about 20 mM NaOH. The bonding response curve obtained by subtracting the bonding response curve of the reference cell was subjected to fitting analysis by a binding model of 1:1 using a software BIA evaluation attached to the system, and affinity constant (KA=kon/koff) to aTNF-Fab was calculated. The result is shown in Table 2 with each binding parameter of GB1#-Cont.1d, which parameter was measured in Comparative Example 2.
An affinity of GB1#-Cont.1d prepared in Comparative example 1 for aTNF-Fab prepared in Example 2(1) was evaluated similarly to the procedure of Example 2(2).
On the technique in general: In SPR one partner is held on a chip, and binding of the other changes the refractive index at the surface.

Turning to “GB1#-Cont.1d: modified SpG-β1 of SEQ ID NO: 1 with improved binding capability to Fab; peptide before substitution mutation, Comparative example (TTYKLILNGKTLTGYTTAIAADAATAEIVLKQFANDNGIDGEWTYDDATKTFTVTE; Immunoglobulin-binding peptide) [reference compound]”, the “Dissociation pH (pH at elution peak top)” value in the experiment on aTNF-Fab [1] stood at 2.60. For the same substance, in the experiment with aTNF-Fab [2], the “KA (affinity constant, KA=kon/koff)” value is 2.45 ×10^6 [M^−1]; the koff is 1.70 ×10^−2 [s^−1]; the kon was 4.17 ×10^4 [M^−1s].
Regarding “GB1#-D36V.1d: modified SpG-β1# single domain with mutation D36V; amino acid SEQ ID NO: 19 (TTYKLILNGKTLTGYTTAIAADAATAEIVLKQFANVNGIDGEWTYDDATKTFTVTE; GB1#-mutant)”, in the experiment with aTNF-Fab [1], the “elution position in pH gradient compared with peptide without mutation” value was “eluted earlier than GB1#-Cont.1d” and the “Dissociation pH (pH at elution peak top)” value is given as 3.40. In the experiment with aTNF-Fab [2], the “KA (affinity constant, KA=kon/koff)” value is 0.51 ×10^6 [M^−1]; the koff was 6.40 ×10^−2 [s^−1]; the kon is 3.28 ×10^4 [M^−1s].
The like results for “GB1#-T17A.1d: modified SpG-β1# single domain, SEQ ID NO: 1 with Thr at 17th position substituted by Ala; amino acid SEQ ID NO: 17 (TTYKLILNGKTLTGYTAAIAADAATAEIVLKQFANDNGIDGEWTYDDATKTFTVTE; GB1#-mutant)” were, in that order, “eluted earlier than GB1#-Cont.1d”, 2.85, 0.88 ×10^6 [M^−1], 2.85 ×10^−2 [s^−1] and 2.50 ×10^4 [M^−1s].
Turning to “GB1#-T17V.1d: modified SpG-β1# single domain with mutation T17V; amino acid SEQ ID NO: 18 (TTYKLILNGKTLTGYTVAIAADAATAEIVLKQFANDNGIDGEWTYDDATKTFTVTE; GB1#-mutant)”, in the experiment with aTNF-Fab [1], the “elution position in pH gradient compared with peptide without mutation” value was “eluted earlier than GB1#-Cont.1d” and the “Dissociation pH (pH at elution peak top)” value is 3.00. Besides, in the experiment on aTNF-Fab [2], the “KA (affinity constant, KA=kon/koff)” value is 0.57 ×10^6 [M^−1]; the koff was 3.35 ×10^−2 [s^−1]; the kon was 1.91 ×10^4 [M^−1s].
